Test results: PubChem BioAssay (NCI)
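Values below derive from 48-hour exposures of cells grown in 96-well plates, with endpoints linearly interpolated between the two concentrations bracketing the appropriate inhibition level. GI50 marks 50% less growth. TGI: concentration producing complete growth inhibition.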

Experiments:
Assay in all cases: growth of human tumour cells (NCI), 48 h
[1] = tested on: 786-0 renal
[2] = tested on: A498 renal
[3] = tested on: A549 NSCLC
[4] = tested on: ACHN renal
[5] = tested on: BT-549 breast
[6] = tested on: CAKI-1 renal
[7] = tested on: CCRF-CEM leukemia
[8] = tested on: COLO 205 colon
[9] = tested on: DU-145 prostate
[10] = tested on: EKVX NSCLC
[11] = tested on: HCC-2998 colon
[12] = tested on: HCT-116 colon
[13] = tested on: HCT-15 colon
[14] = tested on: HL-60(TB) leukemia
[15] = tested on: HOP-62 NSCLC
[16] = tested on: HOP-92 NSCLC
[17] = tested on: HS 578T breast
[18] = tested on: HT29 colon
[19] = tested on: IGROV1 ovarian
[20] = tested on: K-562 leukemia
[21] = tested on: KM12 colon
[22] = tested on: LOX IMVI melanoma
[23] = tested on: M14 melanoma
[24] = tested on: MALME-3M melanoma
[25] = tested on: MCF7 breast
[26] = tested on: MDA-MB-231 breast
[27] = tested on: MDA-MB-435
[28] = tested on: MOLT-4 leukemia
[29] = tested on: NCI-H226 lung
[30] = tested on: NCI-H23 lung
[31] = tested on: NCI-H460 lung
[32] = tested on: NCI-H522 lung
[33] = tested on: NCI/ADR-RES ovarian
[34] = tested on: OVCAR-3 ovarian
[35] = tested on: OVCAR-4 ovarian
[36] = tested on: OVCAR-5 ovarian
[37] = tested on: OVCAR-8 ovarian
[38] = tested on: PC-3 prostate
[39] = tested on: RPMI-8226 leukemia
[40] = tested on: RXF 393 renal
[41] = tested on: SF-268 CNS
[42] = tested on: SF-295 CNS
[43] = tested on: SF-539 CNS
[44] = tested on: SK-MEL-2 melanoma
[45] = tested on: SK-MEL-28 melanoma
[46] = tested on: SK-MEL-5 melanoma
[47] = tested on: SK-OV-3 ovarian
[48] = tested on: SN12C renal
[49] = tested on: SNB-19 CNS
[50] = tested on: SNB-75 CNS
[51] = tested on: SR leukemia
[52] = tested on: SW-620 colon
[53] = tested on: T-47D breast
[54] = tested on: TK-10 renal
[55] = tested on: U251 CNS
[56] = tested on: UACC-257 melanoma
[57] = tested on: UACC-62 melanoma
[58] = tested on: UO-31 renal

NC1(Cc2ccc(Cl)cc2)CCN(c2ncnc3[nH]ccc23)CC1
GI50 [1]: 2.68 µM | TGI [1]: 17 µM | GI50 [2]: 0.546 µM | TGI [2]: 4.58 µM | GI50 [3]: 5.02 µM | TGI [3]: 21.6 µM | GI50 [4]: 5.58 µM | TGI [4]: 32.1 µM | GI50 [5]: 3.45 µM | TGI [5]: 16.3 µM | GI50 [6]: 3.94 µM | TGI [6]: 19.3 µM | GI50 [7]: 3.05 µM | TGI [7]: 24 µM | GI50 [8]: 3.72 µM | TGI [8]: 15.1 µM | GI50 [9]: 9.37 µM | TGI [9]: 25.1 µM | GI50 [10]: 2.69 µM | TGI [10]: 18.5 µM | GI50 [11]: 3.89 µM | TGI [11]: 17 µM | GI50 [12]: 5.18 µM | TGI [12]: 38.7 µM | GI50 [13]: 5.64 µM | TGI [13]: 23.9 µM | GI50 [14]: 3.39 µM | TGI [14]: 17.6 µM | GI50 [15]: 3.63 µM | TGI [15]: 17.2 µM | GI50 [16]: 1.09 µM | TGI [16]: 7.06 µM | GI50 [17]: 2.17 µM | TGI [17]: 14.6 µM | GI50 [18]: 3.7 µM | TGI [18]: 17.8 µM | GI50 [19]: 1.01 µM | TGI [19]: 7.8 µM | GI50 [20]: 4.66 µM | TGI [20]: 19.4 µM | GI50 [21]: 3.02 µM | TGI [21]: 13.9 µM | GI50 [22]: 4.43 µM | TGI [22]: 17.7 µM | GI50 [23]: 8.58 µM | TGI [23]: 23.6 µM | GI50 [24]: 6.3 µM | TGI [24]: 21.6 µM | GI50 [25]: 4.1 µM | TGI [25]: 17.6 µM | GI50 [26]: 6.9 µM | TGI [26]: 26.9 µM | GI50 [27]: 4.67 µM | TGI [27]: 18.1 µM | GI50 [28]: 1.91 µM | TGI [28]: 17.3 µM | GI50 [29]: 6.96 µM | TGI [29]: 25.1 µM | GI50 [30]: 4.55 µM | TGI [30]: 21 µM | GI50 [31]: 2.31 µM | TGI [31]: 13.3 µM | GI50 [32]: 12.6 µM | TGI [32]: 27.7 µM | GI50 [33]: 9.97 µM | TGI [33]: 26.5 µM | GI50 [34]: 11.7 µM | TGI [34]: 25 µM | GI50 [35]: 17.6 µM | TGI [35]: 60.5 µM | GI50 [36]: 8.33 µM | TGI [36]: 43.6 µM | GI50 [37]: 11.1 µM | TGI [37]: 25.4 µM | GI50 [38]: 2.99 µM | TGI [38]: 23.5 µM | GI50 [39]: 4.37 µM | TGI [39]: 26.5 µM | GI50 [40]: 1.41 µM | TGI [40]: 7.12 µM | GI50 [41]: 6.66 µM | TGI [41]: 21.3 µM | GI50 [42]: 1.48 µM | TGI [42]: 13.5 µM | GI50 [43]: 2.21 µM | TGI [43]: 12.6 µM | GI50 [44]: 14.6 µM | TGI [44]: 31 µM | GI50 [45]: 6.63 µM | TGI [45]: 19.8 µM | GI50 [46]: 14.9 µM | TGI [46]: 28.2 µM | GI50 [47]: 2.35 µM | TGI [47]: 15.8 µM | GI50 [48]: 4.4 µM | TGI [48]: 28.8 µM | GI50 [49]: 5.33 µM | TGI [49]: 21.3 µM | GI50 [50]: 0.437 µM | TGI [50]: 4.37 µM | GI50 [51]: 4.2 µM | TGI [51]: 31.4 µM | GI50 [52]: 4.59 µM | TGI [52]: 20.4 µM | GI50 [53]: 1.59 µM | TGI [53]: 14.7 µM | GI50 [54]: 3.17 µM | TGI [54]: 14.8 µM | GI50 [55]: 3.73 µM | TGI [55]: 17.5 µM | GI50 [56]: 13.1 µM | TGI [56]: 26.5 µM | GI50 [57]: 5.85 µM | TGI [57]: 20.4 µM | GI50 [58]: 1.54 µM | TGI [58]: 13 µM

CN(C)c1ccc(/C=N/S(=O)(=O)c2ccc(-n3c(-c4ccccc4)nc4c(Br)cc(Br)cc4c3=O)cc2)cc1
GI50 [1]: 55.7 µM | TGI [1]: > 100 µM | GI50 [2]: 32.5 µM | TGI [2]: > 93.7 µM | GI50 [3]: 34 µM | TGI [3]: > 100 µM | GI50 [4]: 40.4 µM | TGI [4]: > 100 µM | GI50 [5]: 30.6 µM | TGI [5]: > 68.8 µM | GI50 [6]: 47.5 µM | TGI [6]: > 100 µM | GI50 [7]: 3.22 µM | TGI [7]: > 100 µM | GI50 [8]: 44.9 µM | TGI [8]: > 100 µM | GI50 [9]: 32.6 µM | TGI [9]: > 90.2 µM | GI50 [10]: 27.6 µM | TGI [10]: 91.6 µM | GI50 [11]: 51.2 µM | TGI [11]: > 100 µM | GI50 [12]: 33.2 µM | TGI [12]: > 100 µM | GI50 [13]: 51.1 µM | TGI [13]: > 100 µM | GI50 [14]: 34.4 µM | TGI [14]: 84.2 µM | GI50 [15]: 47.7 µM | TGI [15]: > 100 µM | GI50 [16]: 22.7 µM | TGI [16]: 71.6 µM | GI50 [17]: 32.6 µM | TGI [17]: > 92.1 µM | GI50 [18]: 42.5 µM | TGI [18]: > 100 µM | GI50 [19]: 25.6 µM | TGI [19]: > 100 µM | GI50 [20]: 31.3 µM | TGI [20]: > 86.5 µM | GI50 [21]: 32.3 µM | TGI [21]: > 100 µM | GI50 [22]: 46.1 µM | TGI [22]: > 100 µM | GI50 [23]: 31.1 µM | TGI [23]: > 93.5 µM | GI50 [24]: 47.2 µM | TGI [24]: > 89.7 µM | GI50 [25]: 28.8 µM | TGI [25]: > 78 µM | GI50 [26]: 44 µM | TGI [26]: > 100 µM | GI50 [27]: 42 µM | TGI [27]: > 90.7 µM | GI50 [28]: 33.3 µM | TGI [28]: > 80.5 µM | GI50 [29]: 53.8 µM | TGI [29]: > 100 µM | GI50 [30]: 37.7 µM | TGI [30]: 92.6 µM | GI50 [31]: 28.5 µM | TGI [31]: > 100 µM | GI50 [32]: 32.2 µM | TGI [32]: > 97 µM | GI50 [33]: 44.6 µM | TGI [33]: > 100 µM | GI50 [34]: 34.2 µM | TGI [34]: > 100 µM | GI50 [35]: 30.3 µM | TGI [35]: 97.3 µM | GI50 [36]: > 69.5 µM | TGI [36]: > 100 µM | GI50 [37]: 34.2 µM | TGI [37]: > 100 µM | GI50 [38]: 35.3 µM | TGI [38]: > 88 µM | GI50 [39]: 4.27 µM | TGI [39]: > 96.4 µM | GI50 [40]: 50.2 µM | TGI [40]: > 100 µM | GI50 [41]: 48.5 µM | TGI [41]: > 100 µM | GI50 [42]: 35.5 µM | TGI [42]: > 100 µM | GI50 [43]: 44.4 µM | TGI [43]: > 91.8 µM | GI50 [44]: 23.6 µM | TGI [44]: > 96.1 µM | GI50 [45]: 43.6 µM | TGI [45]: > 100 µM | GI50 [46]: 15.3 µM | TGI [46]: 38.3 µM | GI50 [47]: 47.2 µM | TGI [47]: > 100 µM | GI50 [48]: 43.4 µM | TGI [48]: > 100 µM | GI50 [49]: 51.2 µM | TGI [49]: > 100 µM | GI50 [50]: 24.7 µM | TGI [50]: 71.3 µM | GI50 [51]: 1 µM | TGI [51]: 14.9 µM | GI50 [52]: 46.2 µM | TGI [52]: > 100 µM | GI50 [53]: 24.5 µM | TGI [53]: 88 µM | GI50 [54]: 45.8 µM | TGI [54]: > 100 µM | GI50 [55]: 40.7 µM | TGI [55]: > 100 µM | GI50 [56]: 44.6 µM | TGI [56]: > 100 µM | GI50 [57]: 28.3 µM | TGI [57]: > 92.8 µM | GI50 [58]: 32.6 µM | TGI [58]: > 100 µM
